# Residue numbers refer to the chain shown, from its start. Entries after “also recorded” stand apart in the source; their conditions may differ.
# Experiments:
# Rac1V12 protein = biological target: T1, Rac1V12 protein (Homo sapiens, UniProt P63000, G12V); assay: microscale thermophoresis binding to Rac1V12; conditions: various concentrations
# T1 construct: GST; made in house
# Procedure: (§1) The p67^phox protein was expressed in BL21(DE3) bacteria (Stratagene) using the pET30-HIS p67(1-212) plasmid. Protein was purified using the QIAexpress Ni-NTA kit (Qiagen) or the GST Bind Resin Chromatography Kit (Novagen) for RacV12 and RacWT proteins. Mutagenesis was carried out using the Quick Change Lightening Site Directed Mutagenesis Kit (Stratagene).
# (§2) Proteins were labeled for microscale thermophoresis using the Monolith NT Protein Labeling Kit Red (Nano Temper Technologies) as recommended by the manufacturer. Binding reactions were carried out using the Monolith NT. 115 (Nano Temper Technologies). Binding data was analyzed using Graphpad Prizm to estimate Kd values. The arbitrary fluorescence value from the thermophoresis plots for the smallest compound titration was subtracted from every other data point (Delta depletion) prior to normalization to a Vmax of 100. In thermophoresis plots where there was no binding, a curve could not be fit and therefore no Vmax could be assigned. In these instances the highest delta depletion value was set to 100 and all data were normalized accordingly.
# (§3) Next, to perform a competition binding, p67^phox protein was first incubated with either 5 μM Phox-I1 or an equal volume of vehicle control for 15 min prior to titration of purified Rac1V12 protein. […]
# [1] = tested on: PMA-induced ROS production in human neutrophils; assay: luminol chemiluminescence assay of PMA induced ROS production; format: cell-based
# Procedure: Human neutrophils (2×10^5) were stimulated in HBSS supplemented with 0.1% BSA, 1 mM Ca2+, 1 mM Mg2+ and with fMLP (10 μM), PMA (300 nM) or glucose oxidase (200 mU/ml) for 30 min in the presence of 10 μM [8-amino-5-chloro-7-phenylpyrido[3,4-d]pyridazine-1,4(2H,3H)dione] (L012).
# Chemiluminescence was measured using GloMax®-96 Microplate Luminometer (Promega) (Tarpey et al., (2004) Am J Physiol Regul Integr Comp Physiol 286: R431-R444, hereby incorporated by reference in its entirety). The generation of […] by the xanthine/xanthine oxidase was performed in PBS supplemented with xanthine oxidase (0.004 U), HRP (0.005 U·mL^−1) and L012, following the protocol described in Wind et al., (2010) Br J Pharmacol. 161, 885-898, hereby incorporated by reference in its entirety. The reaction was started by the addition of xanthine (0.5 mM).
# p67R38Q = biological target: T2, p67R38Q (Homo sapiens, UniProt P19878, R38Q); assay: microscale thermophoresis binding to p67phox R38Q mutant; conditions: residue critical for Rac1-GTP binding
# T2 construct: using the pET30-HIS p67(1-212) plasmid; His; made in house; host or cells: E. coli BL21(DE3)
# T2 sequence (P19878 1-212 R38Q): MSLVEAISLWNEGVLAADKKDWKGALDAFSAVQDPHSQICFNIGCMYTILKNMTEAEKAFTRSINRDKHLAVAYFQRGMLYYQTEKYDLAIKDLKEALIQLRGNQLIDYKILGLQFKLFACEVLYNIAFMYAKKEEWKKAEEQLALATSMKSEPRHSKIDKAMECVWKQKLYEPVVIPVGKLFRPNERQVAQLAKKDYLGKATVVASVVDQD
# Procedure: as §1, §2, §3
# p67^phox mutation, R188A = biological target: T3, p67^phox mutation, R188A (Homo sapiens, UniProt P19878, R188A); assay: microscale thermophoresis binding to p67phox R188A mutant; conditions: residue outside region critical for Rac1-GTP interaction
# T3 construct: using the pET30-HIS p67(1-212) plasmid; His; made in house; host or cells: E. coli BL21(DE3)
# T3 sequence (P19878 1-212 R188A): T2 sequence (P19878 1-212 R38Q) with Q38R, R188A
# Procedure: as §1, §2, §3
smiles,measurement,setting,value
COc1ccc2c(c1)C1C=C(c3ccccc3)NN1C(c1cccc([N+](=O)[O-])c1)O2 (stereo not shown) [Phox-I1],binding to Rac1V12,Rac1V12 protein,unable to bind; also recorded: no detectable binding
same,effect on PMA-induced ROS production,[1],did not affect
same,binding to p67^phox R38 mutant,p67R38Q,disrupted the binding ability
same,binding to p67^phox R188 mutant,"p67^phox mutation, R188A",retained the binding activity

# Reference: US9567347B2, “Use of small molecule inhibitors targeting the interaction between RAC GTPase and p67(phox)” (CHILDREN'S HOSPITAL MEDICAL CENTER, priority 2012, dated 2017)
